Results on 23 compounds are retold here after ChEMBL document CHEMBL3046192, “Development of new fungicides against Magnaporthe grisea: synthesis and biological activity of pyrazolo[3,4-d][1,3]thiazine, pyrazolo[1,5-c][1,3,5]thiadiazine, and pyrazolo[3,4-d]pyrimidine derivatives” (J Agric Food Chem, 2002).

Molecules are shown by their SMILES. Calls of active or inactive are those of the source. The rule behind the calls is not given here.

For series [1], the system named is Pyricularia grisea. Kind of series: microbe, parasite or virus in culture. The series is classed as functional. To be noted: ATCC 64413, 120 h.
Series [2] concerns Pyricularia grisea. Kind of series: microbe, parasite or virus in culture. The series is classed as functional. To be noted: ATCC 64413, 120 h. The source holds these as a separate data set.
Series [3] concerns Pyricularia grisea. In words: microbe, parasite or virus in culture. The format is functional. To be noted: ATCC 64413, 120 h. This is another data set of the same source.
Series [4] deals with Pyricularia grisea. In words: microbe, parasite or virus in culture. The series is classed as functional. To be noted: ATCC 64413, 120 h. The source holds these as a separate data set.
The subject of series [5] is Pyricularia grisea. Kind of series: Antifungal activity against Magnaporthe grisea ATCC 64413 assessed as depigmentation of mycelium at 200 ug/ml. The series is classed as functional, organism-based.
The test system of series [6] is Oryza sativa. Kind of series: Toxicity in Oryza sativa (rice) assessed as seedling growth at 1 to 10 ug/ml after 10 days. The series is classed as organism-based. Particulars: in vivo, 240 h.
For series [7], the system named is Oryza sativa. Kind of series: Toxicity in Oryza sativa (rice) assessed as cell culture growth at 1 to 10 ug/ml after 10 days. The format is organism-based. Particulars: 240 h.
Series [8] concerns Pyricularia grisea. In words: Antifungal activity against Magnaporthe grisea ATCC 64413 infected rice plant assessed as growth inhibition at 1 to 10 ug/ml after 5 days. The format is functional, organism-based.
In series [9] the test system is Oryza sativa. Kind of series: Toxicity in Oryza sativa (rice) assessed as seedling growth at >10 ug/ml after 10 days. The series is classed as organism-based. To be noted: in vivo, 240 h.

`Cc1nn(-c2ccc(Cl)c(Cl)c2)c2nc(C(F)(F)F)sc(=S)c12` showed an inhibition at 50 µg/mL in the series on Pyricularia grisea [1] of 83.1%. This compound showed an inhibition at 100 µg/mL in the series on Pyricularia grisea [2] of 90.5%. In the series with Pyricularia grisea [3], this compound displayed an inhibition at 200 µg/mL of 100%. Also, the inhibition at 10 µg/mL in the series on Pyricularia grisea [4] is 57.7%.
The corresponding values for `Cc1nn(C(C)(C)C)c2nc(-c3ccccc3)sc(=S)c12` are 16%, 16%, 17% and 14%.
Taken in the same sequence, the figures for `Cc1n[nH]c2nc(Cc3ccccc3)sc(=O)c12` were 57%, 77%, 80% and 30%.
`Cc1cc2nc(C(F)(F)F)sc(=O)n2n1` showed an inhibition at 50 µg/mL with Pyricularia grisea [1] of 97.9%. In the series with Pyricularia grisea [2], the inhibition at 100 µg/mL was found to be 99.5%. Testing at 200 µg/mL with Pyricularia grisea [3] gave an inhibition of 100%. Further, the inhibition at 10 µg/mL in the series with Pyricularia grisea [4] stood at 64.5%.
The compound `Cc1cc2nc(-c3ccc(Br)cc3)sc(=O)n2n1` returned an inhibition at 50 µg/mL with Pyricularia grisea [1] of 47%. At 100 µg/mL the inhibition with Pyricularia grisea [2] was 58%. The same compound gave an inhibition at 200 µg/mL with Pyricularia grisea [3] of 74%. Also, the inhibition at 10 µg/mL in the series on Pyricularia grisea [4] was found to be 47%.
On to `Cc1nn(-c2ccccc2)c2nc(C(F)(F)F)sc(=S)c12`, for which the inhibition at 100 µg/mL with Pyricularia grisea [2] stood at 29.6%. The compound also displayed an inhibition at 200 µg/mL with Pyricularia grisea [3] of 43.8%.
As to `Cc1nn(C(C)(C)C)c2nc(-c3ccccc3)sc(=O)c12`, in the series with Pyricularia grisea [1], 50 µg/mL produced 14% inhibition. Also, in the series with Pyricularia grisea [2], testing at 100 µg/mL gave an inhibition of 16%. For the same compound, the inhibition at 200 µg/mL in the series on Pyricularia grisea [3] came out at 19%. Besides, the inhibition at 10 µg/mL with Pyricularia grisea [4] was 14%.
`Cc1nn(-c2cccc([N+](=O)[O-])c2)c2nc(C(F)(F)F)sc(=O)c12` gave an inhibition at 50 µg/mL in the series on Pyricularia grisea [1] of 39.6%. Moreover, the inhibition at 100 µg/mL in the series on Pyricularia grisea [2] was found to be 54.4%. In the series on Pyricularia grisea [3], this compound registered an inhibition at 200 µg/mL of 81.1%. The compound further registered an inhibition at 10 µg/mL in the series on Pyricularia grisea [4] of 21.9%.
The compound `Cc1n[nH]c2nc(Cc3ccccc3)sc(=S)c12` gave an inhibition at 50 µg/mL with Pyricularia grisea [1] of 75%. This compound also displayed an inhibition at 100 µg/mL in the series with Pyricularia grisea [2] of 76%. Further, in the series with Pyricularia grisea [5], the outcome was Active. The same compound came in with an inhibition at 200 µg/mL with Pyricularia grisea [3] of 77%. This compound returned an inhibition at 10 µg/mL in the series with Pyricularia grisea [4] of 73%.
`Cc1nn(-c2cccc([N+](=O)[O-])c2)c2nc(C(F)(F)F)sc(=S)c12` yielded an inhibition at 50 µg/mL in the series on Pyricularia grisea [1] of 89.1%. The compound also showed an inhibition at 100 µg/mL in the series with Pyricularia grisea [2] of 91.7%. The compound also returned an inhibition at 200 µg/mL with Pyricularia grisea [3] of 100%. Also, the inhibition at 10 µg/mL with Pyricularia grisea [4] turned out to be 71.2%.
The corresponding values for `Cc1n[nH]c2nc(-c3ccccc3)sc(=S)c12` are 15%, 17%, 21% and 14%.
For the compound `Cc1nn(C(C)(C)C)c2nc(C(F)(F)F)sc(=S)c12`, the inhibition at 100 µg/mL in the series on Pyricularia grisea [2] amounted to 42.7%. Testing at 200 µg/mL in the series on Pyricularia grisea [3] gave an inhibition of 58.3%.
On to `Cc1nn(C(C)(C)C)c2nc(C(F)(F)F)[nH]c(=S)c12`, for which at 50 µg/mL the inhibition in the series on Pyricularia grisea [1] was 31%. The inhibition at 100 µg/mL with Pyricularia grisea [2] came to 35%. In the series with Pyricularia grisea [3], this compound showed an inhibition at 200 µg/mL of 44%. In the series on Pyricularia grisea [4], this compound displayed an inhibition at 10 µg/mL of 25%.
The corresponding values for `Cc1cccc2sc3nncn3c12` [TRICYCLAZOLE] are 23.5%, 61.5%, 94% and 0%.
For `O=c1sc(-c2ccccc2)nc2cc(-c3ccccc3)nn12`, in the series with Pyricularia grisea [1], the inhibition at 50 µg/mL is 15%. In the series on Pyricularia grisea [2], this compound registered an inhibition at 100 µg/mL of 15%. Also, in the series on Pyricularia grisea [3], 200 µg/mL produced 15% inhibition. The inhibition at 10 µg/mL with Pyricularia grisea [4] was 15%.
In turn, `Cc1nn(-c2ccccc2)c2nc(C(F)(F)F)[nH]c(=S)c12` showed an inhibition at 50 µg/mL with Pyricularia grisea [1] of 37%. Further, the inhibition at 100 µg/mL with Pyricularia grisea [2] turned out to be 55%. Also, the inhibition at 200 µg/mL in the series with Pyricularia grisea [3] came to 58%. In the series on Pyricularia grisea [4], this compound gave an inhibition at 10 µg/mL of 23%.
`Cc1nn(-c2cccc([N+](=O)[O-])c2)c2nc(C(F)(F)F)[nH]c(=S)c12` yielded an inhibition at 50 µg/mL in the series on Pyricularia grisea [1] of 61%. In addition, testing at 100 µg/mL with Pyricularia grisea [2] gave an inhibition of 78%. The same compound returned an inhibition at 200 µg/mL with Pyricularia grisea [3] of 95.9%. The compound further displayed an inhibition at 10 µg/mL in the series on Pyricularia grisea [4] of 32%.
`Cc1cc2nc(-c3ccccc3)sc(=O)n2n1` returned an inhibition at 50 µg/mL in the series with Pyricularia grisea [1] of 100%. Besides, the inhibition at 100 µg/mL with Pyricularia grisea [2] is 100%. Further, the values for the Activity result with Oryza sativa [6], in the series with Oryza sativa [7] and in the series on Oryza sativa [9] were “Non-toxic”, “Non-toxic” and “Toxic”, respectively. Besides, the outcome in the series with Pyricularia grisea [8] was Active. In addition, at 200 µg/mL the inhibition with Pyricularia grisea [3] was 100%. In the series with Pyricularia grisea [4], this compound gave an inhibition at 10 µg/mL of 92.4%.
`Cc1nn(-c2ccc(Cl)c(Cl)c2)c2nc(C(F)(F)F)[nH]c(=S)c12`: 50 µg/mL produced 91% inhibition in the series with Pyricularia grisea [1]. The same compound came in with an inhibition at 100 µg/mL with Pyricularia grisea [2] of 100%. The same compound gave an inhibition at 200 µg/mL with Pyricularia grisea [3] of 100%. This compound showed an inhibition at 10 µg/mL in the series with Pyricularia grisea [4] of 52%.
For `Cc1n[nH]c2nc(-c3ccccc3)sc(=O)c12`, in the series on Pyricularia grisea [1], the inhibition at 50 µg/mL amounted to 24%. This compound came in with an inhibition at 100 µg/mL in the series on Pyricularia grisea [2] of 28%. The compound further showed an inhibition at 200 µg/mL in the series on Pyricularia grisea [3] of 30%. The compound also displayed an inhibition at 10 µg/mL with Pyricularia grisea [4] of 16%.
Taken in the same sequence, the figures for `Cc1cc2nc(C(F)(F)F)sc(=S)n2n1` were 79.6%, 79.7%, 93.2% and 48.4%.
`O=c1sc(-c2ccccc2)nc2ccnn12` yielded an inhibition at 50 µg/mL in the series with Pyricularia grisea [1] of 70.2%. The same compound gave an inhibition at 100 µg/mL in the series on Pyricularia grisea [2] of 73.1%. The compound also came in with an inhibition at 200 µg/mL in the series with Pyricularia grisea [3] of 75.1%. In addition, the inhibition at 10 µg/mL in the series with Pyricularia grisea [4] turned out to be 67%.
`Cc1cc2nc(-c3ccc(Cl)cc3)sc(=O)n2n1` registered an inhibition at 50 µg/mL with Pyricularia grisea [1] of 62%. In the series with Pyricularia grisea [2], this compound showed an inhibition at 100 µg/mL of 66%. This compound showed an inhibition at 200 µg/mL in the series with Pyricularia grisea [3] of 66%. Also, the inhibition at 10 µg/mL in the series on Pyricularia grisea [4] came out at 17%.
